This note sets out measurements from PMC4774911, “Biochemical Screening of Five Protein Kinases from Plasmodium falciparum against 14,000 Cell-Active Compounds” (PLoS ONE, 2016).

Holding throughout (experiment): biochemical
What all share (set-up): endogenous in cells; host or cells: K562 cell extract; species or system K562 (extract); replicate k of n = 2 (each experiment ID is one independent experiment; two experiment IDs per compound)
What all share (details): read-out: KDapp

The target in experiment [1] is T1, PKMYT1 (Homo sapiens, UniProt Q99640).
T1 sequence (Q99640 1-499): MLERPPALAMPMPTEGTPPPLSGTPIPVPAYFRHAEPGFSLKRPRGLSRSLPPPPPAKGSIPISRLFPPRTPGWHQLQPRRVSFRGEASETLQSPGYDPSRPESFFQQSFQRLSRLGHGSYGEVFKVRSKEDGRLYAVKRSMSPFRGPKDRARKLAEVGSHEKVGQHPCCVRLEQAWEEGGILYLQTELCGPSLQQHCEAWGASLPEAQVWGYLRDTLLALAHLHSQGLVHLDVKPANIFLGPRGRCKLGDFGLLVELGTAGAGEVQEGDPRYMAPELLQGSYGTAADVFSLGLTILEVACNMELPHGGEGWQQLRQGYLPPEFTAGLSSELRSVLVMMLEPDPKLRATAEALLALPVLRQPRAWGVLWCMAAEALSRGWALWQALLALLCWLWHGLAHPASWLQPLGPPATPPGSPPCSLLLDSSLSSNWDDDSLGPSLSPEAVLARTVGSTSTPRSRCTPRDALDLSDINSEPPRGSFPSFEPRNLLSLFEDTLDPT

In experiment [2] the target is T2, AXL (Homo sapiens, UniProt P30530).
T2 sequence (P30530 1-894): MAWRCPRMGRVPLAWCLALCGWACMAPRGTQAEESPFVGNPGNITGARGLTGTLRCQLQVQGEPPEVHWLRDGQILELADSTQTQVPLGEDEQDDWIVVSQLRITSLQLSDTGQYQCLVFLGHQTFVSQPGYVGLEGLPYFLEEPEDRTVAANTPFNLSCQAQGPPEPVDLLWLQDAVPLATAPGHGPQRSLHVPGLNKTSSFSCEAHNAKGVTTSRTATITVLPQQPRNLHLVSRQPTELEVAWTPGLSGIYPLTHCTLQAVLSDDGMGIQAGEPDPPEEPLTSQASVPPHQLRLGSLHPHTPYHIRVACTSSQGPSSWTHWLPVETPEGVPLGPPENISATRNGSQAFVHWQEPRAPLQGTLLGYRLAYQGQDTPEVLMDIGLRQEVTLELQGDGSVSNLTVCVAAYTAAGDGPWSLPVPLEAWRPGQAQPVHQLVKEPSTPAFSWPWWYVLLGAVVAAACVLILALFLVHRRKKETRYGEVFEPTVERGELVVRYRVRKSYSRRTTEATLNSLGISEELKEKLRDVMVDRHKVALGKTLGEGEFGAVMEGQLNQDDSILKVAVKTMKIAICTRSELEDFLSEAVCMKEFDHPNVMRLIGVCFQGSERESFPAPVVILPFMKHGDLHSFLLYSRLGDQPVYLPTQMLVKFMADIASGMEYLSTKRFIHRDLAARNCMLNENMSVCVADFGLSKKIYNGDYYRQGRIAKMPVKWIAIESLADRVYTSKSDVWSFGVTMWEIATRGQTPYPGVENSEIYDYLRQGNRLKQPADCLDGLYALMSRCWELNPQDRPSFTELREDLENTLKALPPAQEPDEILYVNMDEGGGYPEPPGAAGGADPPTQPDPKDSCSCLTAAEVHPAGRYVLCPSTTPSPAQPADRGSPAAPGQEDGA

Experiment [3] addresses CDK5 (Homo sapiens, UniProt Q00535).
The target in experiment [4] is T3, TAOK3 (Homo sapiens, UniProt Q9H2K8).
T3 sequence (Q9H2K8 1-898): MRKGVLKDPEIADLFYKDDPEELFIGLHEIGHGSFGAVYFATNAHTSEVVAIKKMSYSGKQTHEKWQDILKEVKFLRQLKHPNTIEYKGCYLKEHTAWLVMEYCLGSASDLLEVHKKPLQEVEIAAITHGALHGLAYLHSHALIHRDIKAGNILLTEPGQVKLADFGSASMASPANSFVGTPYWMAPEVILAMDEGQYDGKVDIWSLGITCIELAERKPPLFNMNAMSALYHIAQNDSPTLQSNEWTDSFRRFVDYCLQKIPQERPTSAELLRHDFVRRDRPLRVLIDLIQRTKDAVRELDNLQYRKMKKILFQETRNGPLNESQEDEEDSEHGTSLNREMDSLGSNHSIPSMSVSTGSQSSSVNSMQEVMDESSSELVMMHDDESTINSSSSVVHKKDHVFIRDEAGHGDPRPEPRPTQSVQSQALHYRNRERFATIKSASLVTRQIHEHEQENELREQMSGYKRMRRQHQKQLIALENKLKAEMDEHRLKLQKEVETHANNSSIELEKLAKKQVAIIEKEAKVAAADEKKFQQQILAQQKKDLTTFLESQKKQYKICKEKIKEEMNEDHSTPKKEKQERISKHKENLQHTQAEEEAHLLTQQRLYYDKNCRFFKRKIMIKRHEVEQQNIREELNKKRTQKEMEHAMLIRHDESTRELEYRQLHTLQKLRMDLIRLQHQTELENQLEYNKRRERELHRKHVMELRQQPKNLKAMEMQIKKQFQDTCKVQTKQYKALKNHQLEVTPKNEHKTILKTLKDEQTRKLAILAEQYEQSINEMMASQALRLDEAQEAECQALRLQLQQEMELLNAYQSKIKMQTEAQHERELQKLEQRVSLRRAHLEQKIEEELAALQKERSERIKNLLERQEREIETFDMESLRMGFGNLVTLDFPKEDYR

“And” between values parts separate entries of the source, which are not always exact repeats. Equal values may be shown once.

Chain of CDK5 (Q00535 whole entry): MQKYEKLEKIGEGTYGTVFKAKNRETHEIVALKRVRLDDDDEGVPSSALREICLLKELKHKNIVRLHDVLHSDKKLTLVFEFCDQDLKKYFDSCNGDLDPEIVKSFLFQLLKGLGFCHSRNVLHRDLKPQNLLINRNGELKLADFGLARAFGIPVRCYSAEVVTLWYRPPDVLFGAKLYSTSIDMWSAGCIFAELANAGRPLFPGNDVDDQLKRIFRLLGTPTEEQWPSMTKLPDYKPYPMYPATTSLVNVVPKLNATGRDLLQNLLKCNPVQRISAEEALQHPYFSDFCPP

Regarding `CN1CCN(c2ccc(Nc3ncc(C#N)c(Nc4ccccc4C(N)=O)n3)cc2)CC1.Cl` [TCMDC-134116], the Kd is 0.888 µM and 0.596 µM in experiment [1]; 0.266 µM and 0.293 µM in experiment [2]; 0.0405 µM and 0.0665 µM in experiment [3].
With `Cl.NCC1(c2nc(-c3ccc(Cl)c(O)c3)c(-c3ccncc3)[nH]2)CCCCC1` [TCMDC-141154], the Kd in experiment [4] is 1.19 µM and 0.603 µM.
